Residues, ends and D or L forms follow the SMILES beside them. *: point of attachment. Cbz = O=C(OCc1ccccc1)*
Key:
OSBP protein levels = OSBP protein levels by western blot; type: cell-based
Description: One unanticipated discovery from the IF studies was that, after several hours, CRAM treatment of cells caused a significant reduction in the intensity of the OSBP fluorescent signal. This could mean that CRAMs are inducing a reduction in OSBP protein levels: an effect not observed with 25-OHC. The amount of OSBP protein in cells exposed to CRAMs was measured by western blot. […] Cephalostatin 1 induced a 70% reduction in OSBP at 12 h, and OSW-1 caused a 69% reduction in OSBP at 24 h. […] This supports a situation where reduction of OSBP levels by 1 and 2 is a result of a proteasome-dependent degradation process. One possible scenario is that 1 and 2 are also causing protein level reductions of ORPs and this is the source of cytotoxicity of CRAMs.

[1] = cytotoxicity of 25-OHC (cells not named); type: cell-based; details: doses up to 1000 times its OSBP Kd
[2] = test system: OSBP localization in HCT-116 p21+/+ cells; test: OSBP localization by immunofluorescence confocal microscopy; type: cell-based; details: compound exposure 4 h (OSW-1 1 nM)
Description: FIG. 22 depicts OSBP localization in HCT-116 p21^+/+ cells imaged by immunofluorescence confocal microscopy. Immunofluorescence was used to image OSBP and the trans-Golgi protein p230 after compound exposure for 4 h. […] was labeled with Hoescht 33342.
As another way to investigate how CRAMs may affect OSBP, immunofluorescence (IF) experiments were performed in HCT-116 p21^+/+ cells to determine whether OSBP localization was altered upon treatment with different CRAMs. In untreated cells, OSBP resides largely at ER/cytoplasmic sites with a partial localization at the Golgi (FIG. 22A).
This translocation has been reported many times in the literature as an effect of 25-OHC on OSBP. Treatment of cells with OSW-1 at 1 nM for 4 h caused a dramatic and unprecedented effect on OSBP localization (FIG. 22C). […] In this case p230 has been dispersed (see […]). The translocation of OSBP induced by 2 is distinct from that of 25-OHC. […] They also reveal that the effects on OSBP translocation by 1 and 2 are distinct from 25-OHC.

pERK1/2 in HCT-116 cells = test: Western blot of pERK1/2; type: cell-based; details: cephalostatin 1 50 nM, 25-OHC 20 μM 12 h
Description: FIG. 21 depicts Western blot and densitometry analysis of pERK1/2 in HCT-116 cells during treatment with 50 nM cephalostatin 1. 25-OHC (20 μM) and okadaic acid (OKA, 10 nM) treatments were for 12 h and 24 h, respectively.
As another test of whether CRAMs perturb a known OSBP function, it was determined whether CRAMs induce changes to the phosphorylation state of ERK1/2. As mentioned above, 25-OHC binds OSBP and causes disruption of a complex between OSBP and the phosphatases HePTP and PP2A. This blocks dephosphorylation of pERK1/2, leading to a persistence of pERK1/2. Opposing this effect is cholesterol, which binds OSBP, inducing formation of the OSBP-HePTP-PP2A ternary complex, causing ERK1/2 dephosphorylation (FIG. 13).

HCT-116 p21+/+ cells = details: literature value [6]; cited from earlier work
HCT-116 p21−/− cells [3] = details: cited from earlier work
recombinant OSBP-myc-his = molecular target: T1, recombinant OSBP-myc-his (Homo sapiens, UniProt P22059); test: competitive binding assay, displacement of [3H]-25-OHC from OSBP (charcoal-dextran, liquid scintillation counting); details: for displacement of OSBP-bound [3H]-25-OHC: at low micromolar-concentrations
T1 construct: made in house; host or cells: HEK-293T (crude S100 lysate, not purified)
T1 sequence (P22059 1-807): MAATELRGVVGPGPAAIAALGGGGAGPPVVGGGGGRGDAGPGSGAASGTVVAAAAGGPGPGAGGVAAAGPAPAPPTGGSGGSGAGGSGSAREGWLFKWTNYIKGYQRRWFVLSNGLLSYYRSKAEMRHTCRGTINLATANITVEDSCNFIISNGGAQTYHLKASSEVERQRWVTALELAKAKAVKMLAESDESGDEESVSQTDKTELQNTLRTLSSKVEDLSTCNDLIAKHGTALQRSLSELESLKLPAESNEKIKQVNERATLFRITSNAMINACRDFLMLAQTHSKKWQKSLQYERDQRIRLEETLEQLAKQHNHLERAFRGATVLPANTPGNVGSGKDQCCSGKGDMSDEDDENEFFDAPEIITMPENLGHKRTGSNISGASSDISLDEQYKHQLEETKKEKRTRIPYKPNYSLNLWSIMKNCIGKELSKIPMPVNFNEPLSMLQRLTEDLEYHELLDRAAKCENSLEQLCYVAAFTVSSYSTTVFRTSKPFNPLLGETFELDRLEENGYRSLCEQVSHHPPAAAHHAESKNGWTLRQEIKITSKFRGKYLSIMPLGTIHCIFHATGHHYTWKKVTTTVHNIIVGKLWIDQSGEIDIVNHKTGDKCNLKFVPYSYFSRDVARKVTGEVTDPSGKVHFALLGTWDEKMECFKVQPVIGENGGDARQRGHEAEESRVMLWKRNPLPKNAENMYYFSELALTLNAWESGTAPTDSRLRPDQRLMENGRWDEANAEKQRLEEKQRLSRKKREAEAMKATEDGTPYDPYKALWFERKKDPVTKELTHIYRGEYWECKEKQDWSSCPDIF
Description: It has been determined that CRAMs inhibit the binding of radiolabelled 25-OHC ([^3H]-25-OHC) to recombinant OSBP-myc-his and ORP4-myc-his overexpressed in HEK-293T lysate (FIG. 18). It is known that 25-hydroxycholesterol is a high affinity ligand for OSBP and ORP4. Increasing concentrations of CRAMs or OSW-1 analogs were incubated with 20 nM [^3H]-25-OHC in OSBP-myc-his or ORP4-myc-his S100 lysate for 16 h at 4° C. after which unbound sterol was removed using charcoal-dextran and the bound sterol quantified by LCS (liquid scintillation counting).
These experiments provide evidence that CRAMs are ligands of OSBP and ORP4, and in the case of 1 and 2, they are high affinity ligands.
To measure the Kis of CRAMs to OSBP and ORP4 reported above, a previously reported dextran-coated charcoal assay was adapted into a 96-well format. […] To solve these limitations a binding SPA (scintillation proximity assay) for OSBP/ORPs (FIG. 26) will be developed.

HCT-116 p21−/− cells [4] = test: growth inhibition of HCT-116 cells lacking p21 (p21 dependence); type: cell-based; details: for dependence of growth inhibition on p21 status: HCT-116 p21−/− versus p21+/+
Source text: Values are mean±SD of 3 individual experiments each performed in sextublicate or from a single experiment performed in sextublicate. Values for […] were reported in the literature (see Beutler J A, Shoemaker R H, Johnson T, Boyd M R. “Cytotoxic geranyl stilbenes from Macaranga schweinfurthii,” J. Nat. Prod. 1998, 61(12), 1509-12).
[5] […] This shared p21 differential cytotoxicity supports the idea of a common CRAM mechanism of action and likely similar target. […] However, caution has to be exercised in concluding that compounds found to be selective for p21 deficient HCT-116 cells are truly synthetic lethal with p21. It was recently reported that compounds shown to be hypersensitive to HCT-116 p21^−/− cells was actually due to an overexpression of p53 in that cell line. Subsequent siRNA knockdown of p53 eliminated the apparent p21 synthetic lethality.

[5] = test system: HCT-116 p21−/− shNT and shOSBP cells; test: CRAM cytotoxicity after shRNA knockdown of OSBP, HCT-116 p21−/−; type: cell-based; details: HCT-116 p21−/−; for sensitization (GI50 shift) by OSBP knockdown: OSBP knockdown by 84%
Source text: FIG. 17 depicts CRAM cytotoxicity in shRNA OSBP knockdown cell lines. A: Dose curves from a representative experiment. B: GI50 values of CRAMs and control compounds in HCT-116 p21−/− shNT and shOSBP cells and densitometric analysis of OSBP-levels. shNT=non-targeting shRNA, shOSBP=OSBP-targeting shRNA; * P=0.0006 (n=4), ** P=0.0002 (n=3), *** P=0.0003 (n=3), and **** P≦0.0001 (n=7) compared to shNT-treated cells.
To determine whether the cytotoxicity of CRAMs depends on the amount of OSBP in cells, the effects of shRNA knockdown of OSBP on the growth inhibitory activity of CRAMs was measured. Treatment of HCT-116 p21^−/− cells with shRNA targeted to OSBP [24] caused an 84% reduction in the level of OSBP as measured by western blot (FIG. 17B, bottom right).

tumor xenograft = details: i.p. 9.3 mg/kg (Q2D×4); cited from earlier work
NCI-60 = details: read-out: GI50, average against the NCI-60; cited from earlier work

## C[C@H](CCCC(C)(C)O)[C@H]1CC[C@H]2[C@@H]3CC=C4C[C@@H](O)CC[C@]4(C)[C@H]3CC[C@]12C [25-OHC, 25-hydroxycholesterol, reference compound]
OSBP protein levels
  effect on OSBP protein levels: not observed
[1]
  cytotoxicity: not cytotoxic
[2]
  effect on OSBP localization: OSBP translocates to the Golgi
pERK1/2 in HCT-116 cells
  pERK1/2 levels: had the same effect as CRAMs

## CC(/C=C/C=C(C)/C=C/C=C(\C)C(=O)O)=C1/C(=O)C[C@H]2[C@@]3(C)CCC(=O)C(C)(C)[C@@H]3CC[C@]12C [(−)-stellettin E]
HCT-116 p21+/+ cells
  GI50: 4570 nM
HCT-116 p21−/− cells [3]; literature value [6]
  GI50: 39 nM
HCT-116 p21−/− cells [3]; ratio of GI50, literature
  more cytotoxic to HCT-116 p21−/− compared to parental HCT-116: 117 times
HCT-116 p21−/− cells [3]; reported in the literature
  more active in HCT-116 lacking the p21 protein: 117 fold

## C[C@@H]1[C@]2(O[C@H]3C=C4[C@@H]5CC[C@H]6Cc7nc8c(nc7C[C@]6(C)[C@H]5C[C@@H](O)[C@]4(C)[C@]31O)C[C@@H]1CC[C@H]3C4=CC[C@@H]5[C@H](C)[C@@]6(OC[C@]45C(=O)C[C@@H]3[C@@]1(C)C8)OC(C)(C)C[C@H]6O)O[C@](C)(CO)C[C@H]2O [Cephalostatin 1]
OSBP protein levels
  effect on OSBP protein levels: time-dependent reduction in OSBP protein levels
OSBP protein levels; at 12 h
  reduction in OSBP: 70%
Recombinant OSBP-myc-his; 20 nM [3H]-25-OHC, OSBP-myc-his S100 lysate (HEK-293T), 16 h at 4° C., read-out: Ki, displacing OSBP-bound [3H]-25-OHC
  Ki: 50 nM
HCT-116 p21−/− cells [4]; 48 h (FIG. 14)
  differential GI50, HCT-116 p21−/− versus p21+/+: 44 fold
[2]
  effect on OSBP localization: caused a significant amount of OSBP to co-localize with the plasma membrane
pERK1/2 in HCT-116 cells
  pERK1/2 levels: significant increase in pERK1/2 starting at 12 h and persisting for at least 24 h
[5]
  sensitization (GI50 shift) by OSBP knockdown: 3.5 fold

## CC(C)C[C@@H](C=O)NC(=O)[C@H](CC(C)C)NC(=O)[C@H](CC(C)C)NC(=O)OCc1ccccc1 [MG132, reference compound] (Cbz-Leu-Leu-Leu-aldehyde)
OSBP protein levels
  effect on OSBP protein levels: complete rescue of OSBP levels

## COc1cc(/C=C/c2cc(O)c(C/C=C(\C)CCC=C(C)C)c(O)c2)cc2c1O[C@]1(C)C[C@@H](O)[C@@H](O)C(C)(C)[C@H]1C2 [Schweinfurthin B, schweinfurthin B, reference compound]
[2]
  effect on OSBP localization: induced OSBP translocation, but in a manner similar to the 25-OHC effect

## CC(C)C[C@H](NC(=O)[C@H](Cc1ccccc1)NC(=O)c1cnccn1)B(O)O [bortezomib, reference compound]
[5]
  sensitization by OSBP knockdown: does not sensitize

## C[C@H]1CCC/C=C/[C@@H]2C[C@H](O)C[C@H]2[C@H](O)/C=C/C(=O)O1 [brefeldin A, reference compound]
[5]
  sensitization by OSBP knockdown: does not sensitize

## CC(=O)O[C@H]1C(=O)[C@@]2(C)[C@H]([C@H](OC(=O)c3ccccc3)[C@]3(O)C[C@H](OC(=O)[C@H](O)[C@@H](NC(=O)c4ccccc4)c4ccccc4)C(C)=C1C3(C)C)[C@]1(OC(C)=O)CO[C@@H]1C[C@@H]2O [taxol, reference compound]
[5]
  sensitization by OSBP knockdown: does not sensitize

## ritterazine B
Recombinant OSBP-myc-his
  displacement of OSBP-bound [3H]-25-OHC: displaced the bound ligand
HCT-116 p21−/− cells [4]
  dependence of growth inhibition on p21 status: selectively growth inhibitory for HCT-116 cells lacking p21
[5]
  sensitization by OSBP knockdown: sensitized

## schweinfurthin A
Tumor xenograft
  toxicity in xenograft mice: without overt toxicity
  tumor volume: reduction in tumor volume compared to vehicle-treated controls
Recombinant OSBP-myc-his
  displacement of OSBP-bound [3H]-25-OHC: displaced the bound ligand
NCI-60
  GI50: 360 nM
HCT-116 p21−/− cells [4]
  dependence of growth inhibition on p21 status: selectively growth inhibitory for HCT-116 cells lacking p21
[5]
  sensitization by OSBP knockdown: sensitizes
  sensitization (GI50 shift) by OSBP knockdown: 8.9 fold

From US20110319352A1, “Compounds That Bind Oxysterol Binding Proteins, and Methods of Use Thereof” (President and Fellows of Harvard College, priority 2008, published 2011)
